This is an account of results in patent US20180353460A1, “METHODS OF TREATING UROLOGICAL DISORDERS USING SARMs” (priority 2014, published 2018).

Assay [1] deals with prostate, seminal vesicles and levator ani muscle. The experiment in a line: Androgenic and anabolic activity in intact male rats, daily oral gavage. Format: in vivo, rat. On the procedure: Male Sprague-Dawley rats weighing approximately 200 g were purchased from Harlan Bioproducts for Science (Indianapolis, Ind.). The animals were maintained on a 12 h light/dark cycle with food (7012C LM-485 Mouse/Rat Sterilizable Diet, Harlan Teklad, Madison, Wis.) and water available ad libitum. The anabolic and androgenic activity of compound of Formula VIII in intact animals was tested, as well as a dose response evaluation in acutely orchidectomized (ORX) animals. Regenerative effects of the compound of Formula VIII in chronically (9 days) ORX rats was similarly evaluated.
The test article for this study was weighed and dissolved in 10% DMSO (Fisher) diluted with PEG 300 (Acros Organics, NJ) for preparation of the appropriate dosage concentrations. The animals were housed in groups of 2 to 3 animals per cage. Animals were randomly assigned to one of seven groups consisting of 4 to 5 animals per group. Control groups (intact and ORX) were administered vehicle daily. Compound of Formula VIII was administered via oral gavage at doses of 0.01, 0.03, 0.1, 0.3, 0.75, and 1 mg/day to both intact and ORX groups. Where appropriate, animals were castrated on day one of the study. Treatment with compound of Formula VIII began nine days post ORX and was administered daily via oral gavage for fourteen days.
The animals were sacrificed under anesthesia (ketamine/xyalzine, 87:13 mg/kg) and body weights were recorded. In addition, ventral prostate, seminal vesicles, and levator ani muscle were removed, individually weighed, normalized to body weight, and expressed as a percentage of intact control. Student's T-test was used to compare individual dose groups to the intact control group. Significance was defined a priori as a P-value <0.05. Ventral prostate and seminal vesicle weights were evaluated as a measure of androgenic activity, whereas levator ani muscle weight was evaluated as a measure of anabolic activity. Blood was collected from the abdominal aorta, centrifuged, and sera were frozen at −80° C. prior to determination of serum hormone levels. Serum luteinizing hormone (LH) and follicle stimulating hormone (FSH) concentrations were determined.
Male Sprague-Dawley rats weighing approximately 200 g were purchased from Harlan Bioproducts for Science (Indianapolis, Ind.). The animals were maintained on a 12 h light/dark cycle with food (7012C LM-485 Mouse/Rat Sterilizable Diet, Harlan Teklad, Madison, Wis.) and water available ad libitum. Anabolic and androgenic activity of compound of Formula IX in intact animals was evaluated, and the dose response in acutely orchidectomized (ORX) animals was evaluated as well. Regenerative effects of compound of Formula IX in chronically (9 days) ORX rats were also assessed.
The compound was weighed and dissolved in 10% DMSO (Fisher) diluted with PEG 300 (Acros Organics, NJ) for preparation of the appropriate dosage concentrations. The animals were housed in groups of 2 to 3 animals per cage. Intact and ORX animals were randomly assigned to one of seven groups consisting of 4 to 5 animals per group. Control groups (intact and ORX) were administered vehicle daily. Compound of Formula IX was administered via oral gavage at doses of 0.01, 0.03, 0.1, 0.3, 0.75, and 1 mg/day to both intact and ORX groups.
Castrated animals (on day one of the study) were randomly assigned to dose groups (4-5 animals/group) of 0.01, 0.03, 0.1, 0.3, 0.75, and 1 mg/day, for dose-response evaluation. Dosing began nine days post ORX and was administered daily via oral gavage for fourteen days. The animals were sacrificed under anesthesia (ketamine/xyalzine, 87:13 mg/kg) after a 14-day dosing regimen, and body weights were recorded. In addition, ventral prostate, seminal vesicles, and levator ani muscle were removed, individually weighed, normalized to body weight, and expressed as a percentage of intact control. Student's T-test was used to compare individual dose groups to the intact control group. […]

The subject of a further assay is pelvic floor muscles. The experiment in a line: Pelvic floor muscle weight, body weight, lean mass and histology in ovariectomized female mice. As to conditions: OVX mice, 0.5-5 mg/kg/day p.o., 28 days; for pelvic floor muscle weight (cumulative COC, Pc and IL): vs OVX animals. Format: in vivo, mouse. The protocol: Six to eight week old female mice (n=5-7) purchased from JAX® Mice were ovariectomized (OVX) or sham operated. Twenty days after OVX, treatment was initiated as outlined in the table below. Compounds of Formulas IX and VIII were dissolved in DSMO/PEG 300 (15:85) and were administered by oral gavage. Body weight and MRI measurements, to evaluate total body lean mass, were recorded at the beginning and at the end of the treatment. The animals were treated for twenty-eight days and then sacrificed, pelvic floor muscles isolated, weighed and stored for RNA and protein extraction. The expression of genes involved in catabolism and anabolism of muscle was measured by mRNA analysis. The serum concentrations of the drugs were measured by LC-MS/MS. The statistical analysis was performed using JMP Pro® software utilizing one way analysis of variance.
Pelvic floor muscles were paraffin embedded and sections were stained for collagen (Mason trichrome) and elastin (Van Gieson). Stains were evaluated by a pathologist for fiber length and stain intensity.
The pelvic floor muscles in mice are small making the unmagnified visualization difficult. In order to improve the resolution, the pelvic regions of the mice were immersed in formalin for two days after sacrifice before dissecting them under microscope along with precise weight measurement. The COC, Pc, and IL were isolated and weighed using a microbalance that has a resolution as low as a microgram.
Six to eight week old female mice (n=6-8/group) were ovariectomized (OVX) or sham operated. One month after OVX, when the serum hormone levels were at trough, body composition was measured by MRI and treatment was initiated with vehicle or a dose response of one of two SARMs. Twenty eight days after treatment initiation, body composition was again measured, animals were sacrificed, and pelvic floor muscles were weighed. Serum drug concentrations were measured by LC-MS/MS. Muscle sections were stained for collagen and elastin to evaluate the effect of SARMs on architecture. Data were analyzed by One Way ANOVA followed by Tukey test.

“Also recorded” adds a separate entry of the source.

Turning to `C[C@](O)(COc1ccc(C#N)cc1)C(=O)Nc1ccc(C#N)c(C(F)(F)F)c1` [Compound IX, (S)—N-(4-Cyano-3-(trifluoromethyl)phenyl)-3-(4-cyanophenoxy)-2-hydroxy-2-methylpropanamide], the “levator ani muscle weight” value in assay [1] (0.01 mg/day) is 120%±12%; in assay [1] (0.03 mg/day) it was 116%±7%; in assay [1] (0.1 mg/day), 128%±7%; in assay [1] (0.3 mg/day) it was 134%±7%; in assay [1] (0.75 mg/day), 125%±9%; in assay [1] (1 mg/day), 146%±17%. Moreover, the prostate weight is reported as 111%±21% in assay [1] (0.01 mg/day); 88%±15% in assay [1] (0.03 mg/day); 77%±17% in assay [1] (0.1 mg/day); 71%±16% in assay [1] (0.3 mg/day); 71%±10% in assay [1] (0.75 mg/day); 87%±13% in assay [1] (1 mg/day). The seminal vesicle weight in assay [1] (0.01 mg/day) is given as 94%±9%; in assay [1] (0.03 mg/day), 77%±11%; in assay [1] (0.1 mg/day), 80%±9%; in assay [1] (0.3 mg/day) it was 73%±12%; in assay [1] (0.75 mg/day), 77%±10%; in assay [1] (1 mg/day), 88%±14%. The “pelvic floor muscle weight (cumulative COC, Pc and IL)” value in the assay on pelvic floor muscles is given as “increase the weight of pelvic floor muscles”.

In the case of `C[C@](O)(COc1ccc(C#N)cc1)C(=O)Nc1ccc(C#N)c(Cl)c1` [VIII, (S)—N-(3-Chloro-4-cyanophenyl)-3-(4-cyanophenoxy)-2-hydroxy-2-methylpropanamide], the “levator ani muscle weight” value in assay [1] (0.01 mg/day) is given as 107%±5%; in assay [1] (0.03 mg/day) it was 103%±7%; in assay [1] (0.1 mg/day) it was 97%±7%; in assay [1] (0.3 mg/day), 103%±5%; in assay [1] (0.75 mg/day), 118%±7%; in assay [1] (1 mg/day), 118%±7%. Also, the prostate weight is recorded as 103%±10% in assay [1] (0.01 mg/day); 99%±10% in assay [1] (0.03 mg/day); 58%±10% in assay [1] (0.1 mg/day); 58%±15% in assay [1] (0.3 mg/day); 65%±20% in assay [1] (0.75 mg/day); 77%±23% in assay [1] (1 mg/day). Also, the “total lean body mass by MRI” value in the assay on pelvic floor muscles is recorded as “more potent than Compound IX in increasing lean mass”. In addition, the “pelvic floor muscle weight (cumulative COC, Pc and IL)” value in the assay on pelvic floor muscles is “performed better than compound of Formula IX in increasing the muscle weights; also recorded: increase the weight of pelvic floor muscles”. In the assay with pelvic floor muscles (vs OVX controls), the “coccygeus (COC) muscle weight” value is reported as “more potent than Compound IX”.

Take `C[C@](O)(COc1ccc(C#N)c(F)c1)C(=O)Nc1ccc(C#N)c(C(F)(F)F)c1` [XIII, (S)—N-(4-cyano-3-(trifluoromethyl)phenyl)-3-(4-cyano-3-fluorophenoxy)-2-hydroxy-2-methylpropanamide]: the “levator ani muscle weight” value in assay [1] (0.01 mg/day) was 116%±7%; in assay [1] (0.03 mg/day), 134%±8%; in assay [1] (0.1 mg/day) it was 134%±21%; in assay [1] (0.3 mg/day) it was 134%±11%; in assay [1] (0.75 mg/day), 142%±10%; in assay [1] (1 mg/day), 147%±10%. The prostate weight in assay [1] (0.01 mg/day) is reported as 98%±21%; in assay [1] (0.03 mg/day) it was 99%±8%; in assay [1] (0.1 mg/day), 85%±18%; in assay [1] (0.3 mg/day), 98%±22%; in assay [1] (0.75 mg/day), 126%±17%; in assay [1] (1 mg/day), 126%±17%. Besides, the seminal vesicle weight in assay [1] (0.01 mg/day) was 115%±12%; in assay [1] (0.03 mg/day), 109%±17%; in assay [1] (0.1 mg/day), 106%±13%; in assay [1] (0.3 mg/day), 121%±11%; in assay [1] (0.75 mg/day) it was 157%±5%; in assay [1] (1 mg/day) it was 136%±3%.
